Assay results from patent US10322187B2, “Reduced toxicity molecular conjugates of anti-fungal agents” (Lehigh University, priority 2015, dated 2019).
≈ marks a conversion by molar mass, not a printed value. Entries after “also recorded” stand apart in the source; their conditions may differ. Where two headings read alike, the source gives them in different places.

How the values were obtained:
C. albicans = assay: Antifungal activities, MIC/MFC; assay type: cell-based; conditions: C. albicans
Protocol: (§1) A similar sequence of reactions was carried out using lysine dicholamide in place of cholic acid afforded VJ-1147 of Table 2. To assess the antifungal properties of the diwalled VJ-1138 (Table 2) and 2a of Table 3, their in vitro activities were examined against four clinically relevant microbes, i.e., C. albicans, C. glabrata, C. neoformans, and C. gatti (Table 4).
(§2) Minimum inhibitory concentrations (MIC) and minimum fungicidal concentrations (MFC) are the lowest concentrations that are required for completely inhibiting growth, and killing at least 99% of the fungi, respectively.
(§3) The above molecules were tested for antifungal activity. Minimum inhibitory concentrations (MIC) and minimum fungicidal concentrations (MFC) are the lowest concentrations that are required for completely inhibiting growth, and killing at least 99% of the fungi, respectively. As is apparent from Table 4 below, there is a general trend; i.e., increased antifungal activity is observed as the length of the hydrocarbon chain that separates the facial amphiphile from the Amphotericin B moiety is decreased.

C. gatti = assay: Antifungal activities, MIC/MFC; assay type: cell-based; conditions: C. gatti
Protocol: as §1, §2, §3

C. glabrata = assay: Antifungal activities, MIC/MFC; assay type: cell-based; conditions: C. glabrata
Protocol: as §1, §2, §3

C. neoformans = assay: Antifungal activities, MIC/MFC; assay type: cell-based; conditions: C. neoformans
Protocol: as §1, §2, §3

[1] = system: C. albicans, C. glabrata, C. neoformans, and C. gatti; assay: In vitro antifungal activity, general statements on the four microbes; assay type: cell-based; conditions: on a molar basis
Protocol: as §1, §2

[2] = Critical aggregation concentration (CAC) by UV absorptivity; assay type: physicochemical; conditions: PBS, 37° C., absorptivity at 409 nm
Excerpt: If one lets: (i) T, m, and P represent the total, the monomeric, and the aggregate concentrations of this macrolide, respectively; (ii) ε represent the apparent molar absorptivity; and (iii) εm and εp represent the molar absorptivity for the monomeric and aggregate components, respectively, then it can be shown that ε=εp+(εm−εp)m/T. See Yamashita K, Janout V, Bernard E M, Armstrong D, and Regen, S L. Micelle/monomer control over the membrane disrupting properties of an amphiphilic antibiotic. J. Am. Chem. Soc. 117 (1995) 6249-6253. At concentrations that are in excess of its CAC, m is constant, and ε is expected to be inversely proportional to T. Thus, by measuring the apparent molar absorptivity as a function of the reciprocal of the concentration of VJ-1138, its CAC value is estimated to be 0.9 μM (from the intercept of two straight lines).
Determination of Critical Aggregation Concentration (CAC) of AmphB and molecular conjugates. Solutions of AmphB and molecular conjugates in DMSO (Sigma-Aldrich) were prepared having a concentration of 1.00 mM. […] The UV spectrum was then recorded in the range of 250-550 nm. The absorbance at 408 nm was plotted as a function of the reciprocal value of the concentration of AmB and the critical aggregation concentration of the molecular conjugates was then determined, graphically.

sheep red blood cells = assay: Hemolysis measurements, release of hemoglobin; assay type: cell-based
Protocol: Sheep Red Blood Cells, 10%, in saline (Innovative Research, Novi, Mich.), were diluted in saline (pH 7.4) to a concentration of 4%, which corresponds to 4×10^7 cells/mL. All measurements were carried out in duplicate. Solutions of Amphotericin B (Sigma-Aldrich) were prepared by adding 10 μL of a DMSO solution containing a given concentration of the antibiotic (i.e., ranging from 0.2 mM to 50 mM) to 490 μL of PBS. After the resulting solution was vortex mixed for 30 seconds (s) it was incubated at 37° C. for 15 min. The resulting solution of antibiotic (500 μL) was then mixed with 500 μL of the 4% erythrocyte dispersion at 37° C. in a 1 mL plastic centrifuge vial to give a dispersion that was vortex mixed at slow rate for 5 s. After 1 h of incubation at 37° C., all samples were centrifuged (1500 g, Eppendorf centrifuge 5415C, 5000 rpm) at rt for 5 min. The supernatant (˜0.7 mL) from each plastic vial was carefully separated from sediment using a disposable glass pipette and quickly transferred to test tube. A volume of 50 μL of this supernatant was then transferred to a UV cell containing 500 μL of PBS that was maintained at 37° C. The UV spectrum was then scanned (450-650 nm) and the absorbance at 575 nm used to determine the extent of hemolysis. The extent of 0% and 100% of hemolysis was obtained from A575 values of experiments that were run in absence of AmphB (control, [A575,]o) and in presence, 100 μM AmphB ([A575]max), respectively.

HEK293T cells = assay: Inhibition of cell growth, MTT cell viability; assay type: cell-based, human; conditions: 1, 10, 50, and 100 μM; FIG. 4
Protocol: Human embryonic kidney HEK293 cells were cultured in Dulbecco's modified Eagle's medium (DMEM supplemented with 10% FBS, 100 U/mL penicillin, and 0.1 mg/mL SI-10 streptomycin) in a humidified atmosphere of 5% CO2 at 37° C.
HEK293T cells were seeded in 96-well plates at a density of 6,000 cells/well and incubated overnight. Before treatment, compounds aliquots were solubilized in DMSO to obtain 10 mM stock solutions. Appropriate volumes of these stock solutions were added to DMEM media so the final concentration of DMSO is equal to 1%. After removal of cell media, 50 μL of treatment solutions were added to each well and incubated at 37° C. for 2 h. After treatment, the media was removed, and 100 μL of complete medium was added to each well before returning the plate to the incubator. Cell viability was determined after 72 h using the colorimetric MTT assay. Briefly, 10 μL of a 5 mg/mL MTT stock solution was added to the treated cells and incubated for 2 h at 37° C. The resulting formazan crystals were solubilized in 200 μL of DMSO, and the absorbance was measured at 580 nm using an Infinite 200 PRO microplate reader (Tecan). Cell viability was calculated against control cells treated with the vehicle in DMEM.

Cryptococcus neoformans = assay: Cryptococcosis mouse model, brain and lung tissue burden; assay type: in vivo, mice
Protocol: Cryptococcosis mice are infected via tail vein injection of 5×10^4 C. neoformans cells. Inocula are verified by quantitative culture. Animals are identified by temporary ink marking, assigned to groups of 10 mice. Test compounds will be dosed starting on the day of infection. Initial studies will employ i.v., i.p. or oral (gavage) dosing (depending on the compound and the vehicle). Antifungal compounds are given for a period of 7 days. […] On day 8, the lung and brain are evaluated by quantitative culture per gram of tissue, by weighing organs and culturing serially diluted homogenates. These tissue burden studies permit detection of drug efficacy that may not be evident by using a survival endpoint.
The mice were then sacrificed 7 days later for quantitative culture of brain and lung, with cryptococcal cells per gram tissue being expressed as logarithmic values (log 10). Mean values for each group were compared using the t-test.

[3] = t-test, 70 mg/kg/day intraperitoneal

SMILES: CC1OC(O[C@H]2/C=C/C=C/C=C/C=C/C=C/C=C/C=C/[C@H](C)[C@@H](O)[C@@H](C)[C@H](C)OC(=O)C[C@H](O)C[C@H](O)CC[C@@H](O)[C@H](O)C[C@H](O)C[C@]3(O)C[C@H](O)[C@@H](C(=O)NCCCCCCCC(=O)N(CCCCNC(=O)CC[C@@H](C)C4CCC5C6C(O)CC7CC(O)CCC7(C)C6CC(O)C54C)CCCNC(=O)CC[C@@H](C)C4CCC5C6C(O)CC7CC(O)CCC7(C)C6CC(O)C54C)[C@H](C2)O3)C(O)C(N)C1O (stereo partly shown) [VJ-1138]
- MIC (C. albicans; Table 2, 1st value in brackets, read-out: minimum inhibitory concentration (MIC)): 2 µM (≈ 3.95 µg/mL)
- MIC (C. albicans; first Table 4, lowest concentration completely inhibiting growth, read-out: MIC): 1 µM (≈ 1.97 µg/mL)
- MFC (C. albicans; first Table 4, lowest concentration killing at least 99% of the fungi, read-out: MFC): 2 µM (≈ 3.95 µg/mL)
- MIC (C. gatti; Table 2, 4th value in brackets, read-out: minimum inhibitory concentration (MIC)): 3 µM (≈ 5.92 µg/mL)
- MFC (C. gatti; first Table 4, read-out: MFC): 2 µM (≈ 3.95 µg/mL)
- MIC (C. gatti; first Table 4, read-out: MIC): 1 µM (≈ 1.97 µg/mL)
- MIC (C. glabrata; Table 2, 2nd value in brackets, read-out: minimum inhibitory concentration (MIC)): 4 µM (≈ 7.89 µg/mL)
- MFC (C. glabrata; first Table 4): 4 µM (≈ 7.89 µg/mL)
- MIC (C. glabrata; first Table 4, read-out: MIC): 2 µM (≈ 3.95 µg/mL)
- MIC (C. neoformans; Table 2, 3rd value in brackets, read-out: minimum inhibitory concentration (MIC)): 2 µM (≈ 3.95 µg/mL)
- MFC (C. neoformans; first Table 4, read-out: MFC): 2 µM (≈ 3.95 µg/mL)
- MIC (C. neoformans; first Table 4, read-out: MIC): 1 µM (≈ 1.97 µg/mL)
- antifungal potency compared with AmphB [1]: approaches that of the native antibiotic; also recorded: approaching that of AmphB
- critical aggregation concentration (CAC) [2]: 0.9 µM
- EH50 relative to AmphB (sheep red blood cells): approximately 2 orders of magnitude
- hemolytic activity relative to AmphB (sheep red blood cells): dramatically reduced
- EH50, concentration required to induce 50% release of hemoglobin from erythrocytes (sheep red blood cells; pH 7.4): 375 µM
- toxicity toward HEK293t cells compared with AmphB (HEK293T cells): dramatically reduced
- mean lung burden (Cryptococcus neoformans; CD1 male mice, intraperitoneal DMSO solution, 70 mg/kg/day, 7 days, untreated 6.34): 5.10 log 10 cryptococcal cells per
- mean brain burden (Cryptococcus neoformans; CD1 male mice, intraperitoneal DMSO solution, 70 mg/kg/day, 7 days, untreated 8.22): 7.66 log 10 cryptococcal cells per
- p, brain tissue burden compared to untreated mice (Cryptococcus neoformans; [3]): 0.0083
- p, lung tissue burden compared to untreated mice (Cryptococcus neoformans; [3]): < 0.0001
